# Data taken from patent US10314814B2, “Composition comprising 7-hydroxymatairesinol” (LINNEA S.A., priority 2014, dated 2019).
# Experiments:
# Assay type in all cases: in vivo, mice (C57BL/6J)
# [1] = Test 1 - fat mass and lean mass quantification (EchoMRI), body weight; conditions: summary statement; data in FIGS. 1 and 2
# Experimental: (§1) A group of 140 mice (C57BL/6J) was divided in four sub-groups, group 1 having twenty mice and groups 2 to 4 having forty mice each. Group 1 was fed for 60 days with a low fat (LF) diet (providing 10% calories from fat). Group 2 was fed for 60 days with a high fat (HF) diet (providing 50% calories from fat). Groups 3 and 4 were fed for 60 days with a high fat diet and with 3 mg/kg/day of HMRlignan™ purified HMR (HF+HMR) or 10 mg/kg/day of a total extract of Picea abies (HF+TEP), respectively.
# (§2) Mice were kept in animal cabinets maintained at a temperature of 23° C., with natural light/dark cycles. Before treatments, mice were put 5 days on an low fat diet. Mice were fed by gavage daily for 60 days (groups 3 and 4), whilst control groups (1 and 2) received by gavage the carrier only (corn oil). […]
# EchoMRI provides the most precise measurements of whole body composition parameters (total body fat and lean mass), in alive mice without the need of anesthesia or sedation and in less than 1 minute. Alterations in mouse whole body composition were assessed as a result of exposure to modified diets. […]
# The EchoMRI-100™ QNMR system was housed in a dedicated area to minimize the entry of disease or contaminants. […] The output information was expressed as lean tissue mass and fat mass in grams. […]
# [2] = test system: epidydimal adipose tissue; test: Test 2 - histological examination, average adipocyte area
# Experimental: as §1
# (§3) Mice were kept in animal cabinets maintained at a temperature of 23° C., with natural light/dark cycles. Before treatments, mice were put 5 days on an low fat diet. Mice were fed by gavage daily for 60 days (groups 3 and 4), whilst control groups (1 and 2) received by gavage the carrier only (corn oil). The animals were sacrificed by cervical dislocation and the tissues dissected and immediately frozen on dry ice or fixed for histological evaluation.
# Fresh epidydimal adipose tissue was fixed in formaldehyde, embedded in paraffin and sliced into 3-μm sections. Sections were stained with hematoxylin, counterstained with eosin, then coverslipped with DPX (BDH, Poole, UK). […]
# Average adipocyte area was calculated at ×20 magnification with a dedicated software (Image Pro Plus; Imaging and Computer, Milan). In all samples, at least four different fields of three different tissue sections have been evaluated.
# [3] = test system: liver tissue; test: Test 3 - liver steatosis (histology); conditions: high fat diet, 60 days; HMR 3 mg/kg/day, TEP 10 mg/kg/day; compared with HF group 2 (micro- and macro vesicular steatosis)
# Experimental: as §1, §3
# Fresh liver tissue was fixed in formaldehyde, embedded in paraffin and sliced into 3-μm sections. Sections were stained with hematoxylin, counterstained with eosin, then coverslipped with DPX (BDH, Poole, UK). Images acquisition was obtained by a digital camera (Nikon Digital Camera DMX 1200). A sample image of the four groups was illustrated in FIG. 3.
# [4] = Test 4 - glucose tolerance test; conditions: summary statement; data in FIG. 4
# Experimental: as §1, §3
# For glucose tolerance tests animals were fasted overnight for 12 hours and blood sample were obtained from the tail vein. […] The glucose concentration was evaluated with standard method (Benjamin B. Whiddon and Richard D. Palmiter. Ablation of Neurons Expressing Melanin-Concentrating Hormone (MCH) in Adult Mice Improves Glucose Tolerance Independent of MCH Signaling. J Neurosci. 2013 Jan. 30; 33(5): 2009-2016).
# [5] = Test 5 - homeostasis model assessment of insulin resistance (HOMA-IR); conditions: HOMA Calculator, glucose and insulin after 6 hours of food withdrawal, high fat diet, 60 days
# Experimental: as §1, §3
# The homeostatic model assessment of insulin resistance (HOMA-IR) was calculated using glucose and insulin concentrations obtained after 6 hours of food withdrawal, using the HOMA Calculator (Diabetes Trials Unit), the Oxford Centre for Diabetes, Endocrinology and Metabolism: homa.calculator@dtu.ox.ac.uk. Plasma insulin levels were measured with an insulin ELISA kit (Millipore, Mouse Insulin 96 well plate assay; CAT. Nº EZRMI-13K).
# [6] = Test 6 - lipid profiles in blood
# Experimental: as §1, §3
# The concentration in blood of cholesterol (Total), cholesterol HDL (HDL), cholesterol LDL (LDL) and triglycerides (TG) were determined according to standard methods, by using an ILab ARIES analyzer (Instrumentation Laboratory Company, Lexington, Mass., USA) and dedicated reagents kits IL Test (Instrumentation Laboratory Company, Lexington, Mass., USA)
# [7] = test system: IL-6 and TNF-alfa mRNA; test: Test 7 - inflammatory cytokine mRNA expression; conditions: summary statement; data in FIGS. 6a-6c
# Experimental: as §1, §2
# The expression of inflammatory cytokine mRNA was measured in the epidydimal adipose tissue (IL-6 and TNF-alfa) and liver (IL-6) in the four groups of mice according to standard procedures as follows.
# (§4) Total RNA was extracted from 10 to 30 mg of tissue using the RNeasy Lipid Tissue Kit (Qiagen, Maryland, USA) and following the manufacture's instruction. […] Quantitative PCR was performed using Assay on Demand kits based on TaqMan chemistry (Applied Biosystems). […]
# [8] = test system: ATGL, PLA2g7 and LPL mRNA; test: Test 8 - regulation of genes of the lipid metabolism (epidydimal adipose tissue); conditions: summary statement; data in FIGS. 7a-7c
# Experimental: as §1, §3
# The expression of ATGL, PLA2g7 and LPL mRNA was measured in the epidydimal adipose tissue of the four groups of mice according to standard procedures as follows.
# as §4
# [9] = test system: PPARg and TFEB mRNA; test: Test 9 - regulation of genes of the lipid metabolism (liver); conditions: summary statement; data in FIGS. 8a, 8b
# Experimental: as §1, §3
# The expression of PPARg and TFEB mRNA was measured in the liver of the four groups of mice according to standard procedures as follows.
# as §4
# [10] = test system: GSTs mRNA; 8OHdG and dGU; test: Test 10 - oxidative stress (GSTs mRNA, 8OHdG/dGU); conditions: summary statement; data in FIGS. 9, 10
# Experimental: as §1
# Mice were kept in animal cabinets maintained at a temperature of 23° C., with natural light/dark cycles. Before treatments, mice were put 5 days on an low fat diet. […]
# The expression of GSTs mRNA was measured in the four groups of mice according to standard procedures as follows.
# as §4
# The expression of 8OHdG and dGU […] was measured in the four groups of mice according to standard procedures as follows.
# Genomic DNA was isolated with commercial kit PUREGENE (Gentra Systems MN, USA), following the manufacturer's instructions, and then quantified using Nanodrop spectrophotometer (Thermo Scientific, DE, USA). […]
# [11] = test system: hepcidin, ferritin and ferroportin; test: Test 11 - iron metabolism; conditions: summary statement; data in FIG. 11
# Experimental: as §1, §3
# The levels of hepcidin, ferritin and ferroportin were measured in the four groups of mice according to standard procedures as described, for example, in An-Sheng Zhang et al. “Suppression of hepatic hepcidin expression in response to acute iron deprivation is associated with an increase of matriptase-2 protein”, Blood. Feb. 3, 2011; 117(5):1687-1699).
smiles,measurement,setting,value
"COc1cc(CC2C(=O)OCC2C(O)c2ccc(O)c(OC)c2)ccc1O (stereo not drawn) [HMR, 7-hydroxymatairesinol]",obesity,[1],able to reduce
same,Average area (adipocyte),"[2]; epidydimal adipose tissue, high fat diet, 60 days, daily gavage, HMR 3 mg/kg/day, TEP 10 mg/kg/day, HF control 20832, LF 9275, data only indicative, group 3 vs group 2 statistically different",18478 μm^2
same,number and area of adipocytes,[2]; summary statement,able to reduce
same,Liver histology (steatosis),[3],"some vacuoles, much less than group 2"
same,glycaemia,[4],able to reduce
same,IR: Insulin resistance,"[5]; HF control 6.97, LF 0.69",2.04
same,% S: Insulin sensitivity,"[5]; HF control 15.0, LF 121.0",31.9
same,% B: Steady state beta cell function,"[5]; HF control 101.0, LF 64.4",55.0
same,cholesterol LDL (LDL) concentration in blood,"[6]; high fat diet, 60 days, HF control 56, LF 18",51
same,cholesterol HDL (HDL) concentration in blood,"[6]; high fat diet, 60 days, HF control 133, LF 79",129
same,triglycerides (TG) concentration in blood,"[6]; high fat diet, 60 days, HF control 153, LF 88",140
same,cholesterol (Total) concentration in blood,"[6]; high fat diet, 60 days, HMR 3 mg/kg/day, TEP 10 mg/kg/day, HF control 220, LF 114",209
same,dyslipidemia,[6]; summary statement,able to reduce
same,concentration of pro-inflammatory cytokines in the epidydimal adipose tissue and liver,[7],reduce
same,"regulation of genes of the lipid metabolism in the epidydimal adipose tissue (ATGL mRNA, PLA2g7 gene, LPL gene)",[8],able to contribute to the regulation
same,"regulation of genes of the lipid metabolism in the liver (PPARg gene, TFEB gene)",[9],able to contribute to the regulation
same,cellular oxidative stress,[10],able to reduce
same,iron metabolism,[11],regulate
